Data set [1] in a line: C8 chromatography (RP-HPLC), logkw from two gradients with DryLab. Format: physicochemical. Conditions: for logkw, Table S4: C8 chromatography, pH 7.4, short and long gradient; for logkwC8: pH 7.4, 40 °C, retention factor extrapolated to 0% organic modifier. The source says: (§1) For this reason, the next step of our study concerns the characterization of investigated sulfonamide derivatives using a chromatographic approach. Generally, in RP-HPLC, the interactions between solutes and the stationary phase surface are mainly governed by lipophilicity. Consequently, RP-HPLC is the primary tool for assessing the lipophilicity of xenobiotics. […] Generally, the chemical character of target solutes determines interactions between the molecule and the stationary phase that may occur. Considering the large variety of RP-HPLC beds and differences in specific surface area, the energy of the sorbent’s intermolecular interactions between solutes and chemical structures, four different reversed-phase stationary phases and IAM column were investigated during this study. The lipophilicity index was presented as a logkw value, so the retention factor was extrapolated to the pure water after calculation using a protocol based on two gradient measurements and DryLab software.
(§2) Since the biomimetic chromatography experiments are carried out at physiological pH to compare obtained results, all chromatographic experiments have been carried out at pH 7.4. […] Consequently, the chromatography lipophilicity indices refer to the distribution coefficient (logD) values, which better reflect the lipophilicity of ionized substances under physiological conditions.
(§3) For C8, cyanopropyl, and phenyl chromatography, according to the assumption proposed by Snyder and co-workers, appropriate logkw values (i.e., the retention factor logk extrapolated to 0% organic modifier, as an alternative to logP) were obtained. […] Dwell volume for these HPLC systems was measured at 0.780 mL, whereas the obtained dead times for used HPLC columns were equal to 1.530 min, 1.252 min, and 2.335 min for C8, SB-CN, and UK-Phenyl, respectively. The mobile phase was ammonium acetate buffer (50 mM) at pH 7.4 and acetonitrile as an organic modifier in each system. C8 chromatography was performed on Unison UK-C8 column (150 × 2 mm; 3.0 µm. Imtakt; USA) with 0.3 mL/min flow rate. Analyses were carried out in linear gradient from 30 to 100% within 15 min in short gradient and 30 min in long gradient. The Agilent SB-CN column (150 × 4.6 mm; 3.5 µm; Zorbax; USA) was used for the cyanopropyl chromatography. The CN chromatography analyses were carried out in linear gradient from 20 to 100%, which was applied from 0 to 20 min in short gradient, and from 0 to 40 min in long gradient. The flow rate was 1.5 mL/min. The column Unison UK-Phenyl (150 × 2 mm; 3.0 µm; Imtakt; USA) was used to perform phenyl chromatography. The flow rate was set to 0.2 mL/min. The phenyl analyses were carried out in linear gradient from 40 to 100%, which was applied from 0 to 20 min in short gradient, and from 0 to 40 min in long gradient. Each HPLC analysis was run in triplicate; in Tables S2–S6, obtained retention times are listed, whereas representative chromatograms are shown in Figure 9.

The nature of data set [2]: IAM chromatography (IAM-HPLC), IAM.PC.DD2 column. Conditions: for logkIAM: logkIAM = 0.045 CHIIAM + 0.42; for logkIAM / CHI (CHIIAM), Table S2: pH 7.4; for CHIIAM: pH 7.4, 30 °C, acetonitrile gradient; for CHI (CHIIAM), Table S2: IAM chromatography, from mean of three retention times. The format is physicochemical.
Text: as §1, §2
(§4) All HPLC experiments were carried out using a Prominence-1 LC-2030C 3D HPLC system (Shimadzu, Japan) equipped with a DAD detector and controlled by the LabSolution system (version 5.90 Shimadzu, Japan). The stock solutions of solutes were diluted to obtain 100 μg/mL concentrations, and the injected volume was 10 μL. During this study, six different columns in terms of chemical modification of stationary phases were used. Retention times (tR) of investigated sulfonamides were collected, and their detection in all systems was performed at the wavelength characteristic for each compound, summarized in Table S1. For all chromatography systems, analysis was carried out at 40 °C, except for IAM chromatography, in which oven temperature was set to 30 °C. The CHIIAM and CHI18 indices of the target sulfonamides derivatives were obtained using the protocol proposed by Valko and co-workers. C18 chromatography was performed on a Waters-C18 column (150 mm × 3.9 mm; 5.0 µm; Symmetry; USA), with a 1.5 mL/min flow rate. The mobile phase was ammonium acetate buffer (50 mM) at pH 7.4 and acetonitrile as an organic modifier. The linear gradient from 2 to 98% ACN was applied from 0 to 30 min. IAM chromatography was executed on an IAM.PC.DD2 column ([…] × 4.6 mm; 10.0 µm; Regis Technologies, Morton Grove, IL, USA) additionally equipped with an IAM guard column with the same flow rate of 1.5 mL/min. The mobile phase was sodium phosphate buffer (10 mM) at pH 7.4 and acetonitrile as the organic phase. The linear gradient from 0 to 85% was applied within 5.25 min.

A short description of data set [3]: Cyanopropyl (CN) chromatography, logkw from two gradients with DryLab. The format is physicochemical. Conditions: for logkw, Table S5: Cyanopropyl chromatography, pH 7.4, short and long gradient; for logkwCN: pH 7.4, 40 °C, retention factor extrapolated to 0% organic modifier.
Text: as §1, §2, §3

Data set [4] has as its system human colon cancer (HCT-116). Also noted: method as in PMID 29772699, PMID 28122174, PMID 27338337, PMID 26506328. As to conditions: HCT-116 cell line; cited from earlier work.
The nature of data set [5]: Phenyl (Ph) chromatography, logkw from two gradients with DryLab. The format is physicochemical. As to conditions: for logkw, Table S6: Phenyl chromatography, pH 7.4, short and long gradient; for logkwPh: pH 7.4, 40 °C, retention factor extrapolated to 0% organic modifier.
Text: as §1, §2, §3

Data set [6] can be described thus: C18 chromatography (RP-HPLC), chromatographic hydrophobicity index. As to conditions: for chromatographic logD: Waters Symmetry C18 column, CHI log D = 0.0525 CHIC18 − 1.467, pH 7.4; for CHIC18: pH 7.4, 40 °C, acetonitrile gradient. The format is physicochemical.
Text: as §1, §2, §4

As to `COc1ccc(NC(=O)c2cc(S(=O)(=O)Nc3nncc(-c4ccc(OC)cc4)n3)c(SCc3ccccc3)cc2Cl)cc1` [Compound 20], in data set [1], the “logkw, Table S4” value came to 4.020 and the logkwC8 is listed as 4.02. For the same compound, in data set [2], the logkIAM amounted to 1.99 and the CHIIAM is given as 34.90. Further, in data set [3], the “logkw, Table S5” value is reported as 2.211 and the logkwCN is 2.21. Further, the pIC50 in data set [4] is listed as 4.14. For the same compound, in data set [5], the “logkw, Table S6” value is 3.789 and the logkwPh is reported as 3.79. In data set [6], this compound had a chromatographic logD of 2.59 and a CHIC18 of 77.20.
Regarding `Cc1cc(S(=O)(=O)Nc2nncc(-c3ccc(C(F)(F)F)cc3)n2)c(SCc2ccc(C(F)(F)F)cc2)cc1Cl` [Compound 21], in data set [1], the “logkw, Table S4” value came to 4.440 and the logkwC8 was 4.44. In data set [2], the logkIAM is listed as 2.28 and the CHIIAM is given as 41.30. In data set [3], the “logkw, Table S5” value is 2.110 and the logkwCN was 2.11. Also, the pIC50 in data set [4] is 4.29. Moreover, in data set [5], the “logkw, Table S6” value was 4.480 and the logkwPh is reported as 4.48. For the same compound, in data set [6], the chromatographic logD is 3.34 and the CHIC18 was 91.60.
As for `Cc1cc(S(=O)(=O)Nc2nncc(-c3cccc(F)c3)n2)c(SCc2cccc3ccccc23)cc1Cl` [Compound 22], in data set [1], the “logkw, Table S4” value turned out to be 4.276 and the logkwC8 is reported as 4.28. Also, in data set [2], the “CHI (CHIIAM), Table S2” value was 42.2 and the logkIAM is listed as 2.32. In addition, in data set [3], the “logkw, Table S5” value was determined as 2.356 and the logkwCN is on record as 2.36. Moreover, the pIC50 in data set [4] was 4.31. In addition, in data set [5], the “logkw, Table S6” value is 4.254 and the logkwPh is 4.25. In data set [6], this compound registered a chromatographic logD of 2.97 and a CHIC18 of 84.60.
Turning to `COc1ccc(-c2cnnc(NS(=O)(=O)c3cc(C)c(Cl)cc3SCc3cccc4ccccc34)n2)cc1` [Compound 23], in data set [1], the “logkw, Table S4” value was 4.120 and the logkwC8 was 4.12. Moreover, in data set [2], the “CHI (CHIIAM), Table S2” value came out at 41.1 and the logkIAM worked out at 2.27. In addition, in data set [3], the “logkw, Table S5” value is listed as 2.478 and the logkwCN is recorded as 2.48. Moreover, the negative-log IC50 (pIC50) in data set [4] was 4.42. Also, in data set [5], the “logkw, Table S6” value came out at 4.401 and the logkwPh is recorded as 4.40. Besides, in data set [6], the chromatographic logD was 3.05 and the CHIC18 is reported as 86.10.
Turning to `Cc1cc(S(=O)(=O)Nc2nncc(-c3cccc(F)c3)n2)c(SCc2ccc(C(F)(F)F)cc2)cc1Cl` [Compound 24], in data set [1], the “logkw, Table S4” value is listed as 4.256 and the logkwC8 is on record as 4.26. Moreover, in data set [2], the “CHI (CHIIAM), Table S2” value was found to be 38.3 and the logkIAM came to 2.14. In addition, in data set [3], the “logkw, Table S5” value is 2.277 and the logkwCN is listed as 2.28. Moreover, in data set [4], the pIC50 was 4.17. Also, in data set [5], the “logkw, Table S6” value is 4.088 and the logkwPh was 4.09. Moreover, in data set [6], the chromatographic logD was determined as 3.13 and the CHIC18 is 87.50.
Regarding `COc1ccc(-c2cnnc(NS(=O)(=O)c3cc(C)c(Cl)cc3SCc3ccc(C(F)(F)F)cc3)n2)cc1` [Compound 25], in data set [1], the “logkw, Table S4” value came out at 4.260 and the logkwC8 is 4.26. Also, in data set [2], the “CHI (CHIIAM), Table S2” value is recorded as 37.2 and the logkIAM was found to be 2.09. In data set [3], the “logkw, Table S5” value is given as 2.330 and the logkwCN was 2.33. In addition, the pIC50 in data set [4] is reported as 4.17. For the same compound, in data set [5], the “logkw, Table S6” value is 3.886 and the logkwPh is 3.89. Moreover, in data set [6], the chromatographic logD is 2.96 and the CHIC18 worked out at 84.40.

The record behind these values is PMC9268166, “Modeling of Anticancer Sulfonamide Derivatives Lipophilicity by Chemometric and Quantitative Structure-Retention Relationships Approaches” (Molecules, 2022).
